In publication PMC8748916, “Microbial enzymes induce colitis by reactivating triclosan in the mouse gastrointestinal tract” (Nature Communications, 2022):
Several values for one entry are separate records, joined by “and”; a condition that tells them apart may be missing. Identical values can stand only once.

How the values were obtained:
[1] = LC-MS/MS profiling of TCS metabolism in mice (TCS via diet for 4 weeks); details: for concentration of TCS, TCS-G, TCS-Sulfate: individual mice
[2] = LC-MS/MS of TCS and its metabolites in human stool and urine after use of TCS-containing personal care products; type: in vivo; details: for TCS metabolites in human stool / TCS metabolites in human urine: Treatment TCS, individual subjects; for average molar concentration ratio: TCS-exposed subjects;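 as to Profile in stool (%): molar share of summed TCS plus TCS-G plus TCS-sulfate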;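 as to Profile in urine (%): molar share of summed TCS plus TCS-G plus TCS-sulfate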;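 as to average molar concentration ratio: molar share of summed TCS plus TCS-G plus TCS-sulfate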
Text: To broaden our understanding of TCS metabolic profiles in the gut, we next analyzed TCS metabolism in human subjects. We utilized urine and stool samples from a previous study in which the recruited human subjects were first subjected to a washout period (no usage of TCS-containing products), then were randomly assigned to two groups that used personal care products like toothpaste with or without TCS for up to four months (see the scheme of the experiment in Fig. 1c)[15]. Previous data had established that humans are primarily exposed to TCS via toothpaste that provides a direct oral route to the gastrointestinal tract[16],[17].

[3] = system: enzymes extracted from human fecal samples; test: In fimo assay (TCS-G turnover rate by human fecal extracts); type: biochemical; details: Fig. 3c, replicates 1-3
Procedure: Fecal extracts were prepared and proteomic analysis was performed exactly as previously described. In total, 10 g of frozen human fecal sample was thawed and added to 25 mL extraction buffer (25 mM HEPES, 25 mM NaCl pH 6.5 with Roche Complete protease inhibitor tablet) and 0.5 g autoclaved garnet beads. The mixture was vortexed until homogenous and centrifuged at low speed (300 × g for 5 min at 4 °C). The supernatant was decanted. In all, 25 mL buffer was added to the pellet and the vortex and centrifugation steps repeated. The supernatants from these steps were then combined and centrifuged at low speed for two more cycles. The resultant supernatant was sonicated twice using 1 s pulses for 1.5 min and the lysate was centrifuged at 17,000 × g for 20 min in a Beckman Coulter J2-HC centrifuge. The decanted lysate was then washed with several exchanges of extraction buffer to remove metabolites and small molecules. Total protein concentration was quantitated using a Bradford assay. The fecal lysate was diluted to 1 mg/mL concentration and snap-frozen in small aliquots.
Reaction mixtures contained 5 µL fecal extract (0.1 mg/mL final), 30 µL TCS-G (200 µM final), and 15 µL assay buffer (25 mM HEPES, 25 mM NaCl, pH 6.5). Reactions were quenched at five time points with 50 µL 25% trichloroacetic acid. Samples were centrifuged 20 min at 16,000 × g in a tabletop centrifuge, and the supernatant was analyzed via the same HPLC method described for the catalytic efficiency assay. Reaction rates were determined by fitting progress curves using linear regression and are expressed as initial turnover rates (µM/s). Controls contained fecal extract that had been heat-killed at 95 °C for 5 min. Reported rates are the average of three biological replicates ±SEM.

[4] = treatment time 0 months (after washout)

O=S(=O)(O)Oc1cc(Cl)ccc1Oc1ccc(Cl)cc1Cl [TCS-sulfate, triclosan-sulfate]
concentration of TCS, TCS-G, TCS-Sulfate ([1]; Bile, 80 ppm TCS via diet 4 weeks): 93.62 pmol/mg and 49.05 pmol/mg and 43.31 pmol/mg and 67.29 pmol/mg
concentration of TCS, TCS-G, TCS-Sulfate ([1]; Cecum (digesta), 80 ppm TCS via diet 4 weeks): 0.12 pmol/mg and 0.13 pmol/mg and 0.09 pmol/mg and 0.35 pmol/mg and 0.29 pmol/mg and 0.53 pmol/mg and 0.56 pmol/mg and 0.38 pmol/mg and 0.61 pmol/mg and 0.54 pmol/mg
concentration of TCS, TCS-G, TCS-Sulfate ([1]; Cecum digesta, 1 ppm TCS in diet 4 weeks): 0 pmol/mg
concentration of TCS, TCS-G, TCS-Sulfate ([1]; Cecum digesta, 10 ppm TCS in diet 4 weeks): 0.02 pmol/mg and 0 pmol/mg and 0.01 pmol/mg
concentration of TCS, TCS-G, TCS-Sulfate ([1]; Cecum digesta, 80 ppm TCS in diet 4 weeks): 0.03 pmol/mg and 0.05 pmol/mg and 0.08 pmol/mg and 0.06 pmol/mg and 0.13 pmol/mg
concentration of TCS, TCS-G, TCS-Sulfate ([1]; Colon (digesta), 80 ppm TCS via diet 4 weeks): 1.16 pmol/mg and 1.00 pmol/mg and 1.32 pmol/mg and 1.31 pmol/mg and 2.15 pmol/mg and 0.67 pmol/mg and 0.75 pmol/mg and 2.57 pmol/mg and 1.48 pmol/mg and 2.39 pmol/mg
concentration of TCS, TCS-G, TCS-Sulfate ([1]; Colon digesta, 1 ppm TCS in diet 4 weeks): 0 pmol/mg
concentration of TCS, TCS-G, TCS-Sulfate ([1]; Colon digesta, 10 ppm TCS in diet 4 weeks): 0.2 pmol/mg and 0 pmol/mg and 0.03 pmol/mg and 0.01 pmol/mg and 0.05 pmol/mg and 0.02 pmol/mg
concentration of TCS, TCS-G, TCS-Sulfate ([1]; Colon digesta, 80 ppm TCS in diet 4 weeks): 0.3 pmol/mg and 0.21 pmol/mg and 0.1 pmol/mg and 0.13 pmol/mg and 0.22 pmol/mg and 0.09 pmol/mg and 0.81 pmol/mg and 0.37 pmol/mg
concentration of TCS, TCS-G, TCS-Sulfate ([1]; Feces, 1 ppm TCS in diet 4 weeks): 0.05 pmol/mg
concentration of TCS, TCS-G, TCS-Sulfate ([1]; Feces, 10 ppm TCS in diet 4 weeks): 0.1 pmol/mg and 0.16 pmol/mg
concentration of TCS, TCS-G, TCS-Sulfate ([1]; Feces, 80 ppm TCS in diet 4 weeks): 3.27 pmol/mg and 1.08 pmol/mg
Level in Cecum ([1]; Fig. S3b, Cecum, individual mice No. 1-10 per row): 0.53 and 0.56 and 0.38 and 0.61 and 0.54 and 0.12 and 0.13 and 0.09 and 0.35 and 0.29
Level in Colon ([1]; Fig. S3b, Colon, individual mice No. 1-10 per row): 0.78 and 1.13 and 3.01 and 1.95 and 2.87 and 1.28 and 1 and 1.68 and 1.44 and 2.3
Level in SI 1st section ([1]; Fig. S3b, SI 1st section, individual mice No. 1-10 per row): 7.35 and 7.33 and 7.48 and 7.82 and 9.31 and 9.27 and 9.71 and 4.38 and 7.68 and 8.04
Level in SI 2nd section ([1]; Fig. S3b, SI 2nd section, individual mice No. 1-10 per row): 6.24 and 6.6 and 5.34 and 6.55 and 6.34 and 6.37 and 6.86 and 2.98 and 4.48 and 5.78
Level in SI 3rd section ([1]; Fig. S3b, SI 3rd section, individual mice No. 1-10 per row): 5.62 and 5.7 and 3.67 and 5.46 and 7.7 and 5.86 and 4.93 and 2.15 and 4.34 and 5.06
Level in SI 4th section ([1]; Fig. S3b, SI 4th section, individual mice No. 1-10 per row): 7.25 and 6.61 and 6.48 and 10.63 and 8.75 and 6.52 and 6.94 and 2.9 and 7.06
concentration of TCS, TCS-G, TCS-Sulfate ([1]; Heart, 80 ppm TCS via diet 4 weeks): 10.90 pmol/mg and 8.11 pmol/mg and 9.20 pmol/mg and 10.24 pmol/mg
concentration of TCS, TCS-G, TCS-Sulfate ([1]; Liver, 80 ppm TCS via diet 4 weeks): 37.26 pmol/mg and 31.81 pmol/mg and 21.91 pmol/mg and 24.89 pmol/mg and 30.95 pmol/mg and 12.68 pmol/mg and 35.36 pmol/mg and 32.58 pmol/mg and 32.38 pmol/mg and 20.28 pmol/mg
concentration of TCS, TCS-G, TCS-Sulfate ([1]; SI 1st section (digesta), 80 ppm TCS via diet 4 weeks): 7.33 pmol/mg and 7.48 pmol/mg and 7.82 pmol/mg and 9.31 pmol/mg
concentration of TCS, TCS-G, TCS-Sulfate ([1]; SI 2nd section (digesta), 80 ppm TCS via diet 4 weeks): 6.37 pmol/mg and 6.86 pmol/mg and 2.98 pmol/mg and 4.48 pmol/mg and 5.78 pmol/mg and 6.24 pmol/mg and 6.60 pmol/mg and 5.34 pmol/mg and 6.55 pmol/mg and 6.34 pmol/mg
concentration of TCS, TCS-G, TCS-Sulfate ([1]; SI 3rd section (digesta), 80 ppm TCS via diet 4 weeks): 5.86 pmol/mg and 4.93 pmol/mg and 2.15 pmol/mg and 4.34 pmol/mg and 5.06 pmol/mg and 5.62 pmol/mg and 5.70 pmol/mg and 3.67 pmol/mg and 5.46 pmol/mg and 7.70 pmol/mg
concentration of TCS, TCS-G, TCS-Sulfate ([1]; SI 4th section (digesta), 80 ppm TCS via diet 4 weeks): 6.52 pmol/mg and 6.94 pmol/mg and 2.90 pmol/mg and 6.61 pmol/mg and 7.06 pmol/mg and 7.25 pmol/mg and 6.48 pmol/mg and 10.63 pmol/mg and 8.75 pmol/mg
share of TCS metabolites found ([1]; digesta of the 4th section of the mouse small intestine, 80 ppm TCS via diet 4 weeks): 7.7%
share of TCS metabolites found ([1]; fecal content, 80 ppm TCS via diet 4 weeks): 0.2%
Profile in urine (%) ([2]; TCS-exposed human subjects, n=7 urine samples): 0.04%
Profile in stool (%) ([2]; TCS-exposed human subjects, n=23 stool samples): 0.0365%
TCS metabolites in human stool [2, 4]: 0.311 pmol/ g stool and < LOD
TCS metabolites in human urine [2, 4]: 0.071 nM urine and < LOD (3×)
TCS metabolites in human stool ([2]; treatment time 1 month): 1.344 pmol/ g stool and < LOD (3×) and 0.342 pmol/ g stool and 0.381 pmol/ g stool
TCS metabolites in human urine ([2]; treatment time 1 month): 0.470 nM urine
TCS metabolites in human stool ([2]; treatment time 2 months): < LOD (4×) and 0.999 pmol/ g stool
TCS metabolites in human urine ([2]; treatment time 2 months): 0.522 nM urine
TCS metabolites in human stool ([2]; treatment time 3 months): 0.987 pmol/ g stool and < LOD (5×)
TCS metabolites in human urine ([2]; treatment time 3 months): 0.157 nM urine
TCS metabolites in human stool ([2]; treatment time 4 months): 0.971 pmol/ g stool and < LOD (4×) and 0.236 pmol/ g stool
TCS metabolites in human urine ([2]; treatment time 4 months): 0.257 nM urine and < LOD and 0.689 nM urine and 0.388 nM urine
average molar concentration ratio ([2]; human stool): 0.0%
average molar concentration ratio ([2]; human urine): 0.0%

O=C(O)[C@H]1OC(Oc2cc(Cl)ccc2Oc2ccc(Cl)cc2Cl)[C@H](O)[C@@H](O)[C@@H]1O (stereo partly shown) [TCSG]
TCSG turnover rate ([3]; human fecal extract sample F2): 0.0489 µM/s and 0.0506 µM/s and 0.0488 µM/s
TCSG turnover rate ([3]; human fecal extract sample F3): 0.0556 µM/s and 0.0559 µM/s and 0.0553 µM/s
TCSG turnover rate ([3]; human fecal extract sample F4): 0.036 µM/s and 0.0272 µM/s and 0.0271 µM/s
TCSG turnover rate ([3]; human fecal extract sample M1): 0.063 µM/s and 0.0659 µM/s and 0.0613 µM/s
TCSG turnover rate ([3]; human fecal extract sample M2): 0.0168 µM/s and 0.0179 µM/s and 0.0157 µM/s
TCSG turnover rate ([3]; human fecal extract sample M3): 0.0438 µM/s and 0.0439 µM/s and 0.0436 µM/s
